Assay results taken from PMC6006364, “D-Cateslytin: a new antifungal agent for the treatment of oral Candida albicans associated infections” (Scientific Reports, 2018).
In brackets after ≈: the same amount, converted by molar mass. Non-standard residues stand in square brackets, D forms with d. Residues, ends and D or L forms follow the SMILES beside them. No end group written: not given here. rhodamine = not defined here

Key:
[1] = test system: proteases secreted by Candida albicans; experiment: Peptide stability in the supernatant of Candida albicans (HPLC); assay type: in vitro ADME; settings: peptide 186 μg/mL = 100 μM in 100 μL filtered supernatant, 37 °C, 24 h; RP-HPLC C18, 214 nm; repeated three times
Description: The supernatant of Candida albicans was prepared as follows: a single colony of Candida albicans was resuspended in 5 mL of Sabouraud medium and incubated at 37 °C overnight. The culture was then centrifuged at 10000 g for 1 min and the supernatant was filtered using a 0.22 μm MillexH-GV (Merck Millipore). In order to check sterility, an aliquot of the supernatant was incubated at 37 °C for 48 h. The absence of growth was interpreted as a lack of viable microorganism.
100 μL of supernatant was then directly incubated or not with L-Ctl or D-Ctl (186 μg/mL = 100 μM) at 37 °C for 24 h. As a control, each peptide (186 μg/mL = 100 μM) as well as the combination ½ MICD-Ctl + ¼ MICVCZ were incubated in water (100 μL) at 37 °C for 24 h. Samples were then separated using a Dionex HPLC system (Ultimate 3000) on a Nucleosil reverse-phase 300–5C18-column (4.6 × 250 mm; particle size: 5 μm; porosity, 300 Å) (Macherey Nagel). Absorbance was monitored at 214 nm and the solvent system consisted of 0.1% (v/v) TFA in water (solvent A) and 0.09% (v/v) TFA in 70% (v/v) acetonitrile-water (solvent B). Elution was performed at a flow rate of 700 μL/min with a gradient of solvent B as indicated on the chromatograms. Each peak was manually collected.

[2] = test system: Candida albicans (ATCC 10231); experiment: microbe, parasite or virus in culture; assay type: cell-based; settings: for minimal inhibitory concentration (MIC): ATCC 10231, 24 h
Description: Candida albicans (ATCC© 10231^TM) was cultured in Sabouraud medium (Sigma-Aldrich) supplemented with tetracycline (10 μg/mL) and cefotaxime (10 μg/mL) at 37 °C for 24 h. Candida albicans (OD600nm = 0,001) were plated in 96-well plates and treated either with different concentrations of the peptides of interest, and/or with different concentrations of voriconazole (VCZ) (Sigma-Aldrich). As a positive control, cells were treated with 10 μg/mL VCZ. After 24 hours incubation, yeast growth was assessed by optical density OD600nm using a spectrophotometer (Multiscan EX). The MIC of the antifungal agents, defined as the lowest concentration of drug able to inhibit 100% of the growth of a pathogen was determined using a modified Gompertz model.

[3] = test system: Candida albicans (ATCC 10231); experiment: Antifungal combination test D-Ctl + voriconazole (FIC index); assay type: cell-based
Description: Candida albicans (ATCC© 10231^TM) was cultured in Sabouraud medium (Sigma-Aldrich) supplemented with tetracycline (10 μg/mL) and cefotaxime (10 μg/mL) at 37 °C for 24 h. Candida albicans (OD600nm = 0,001) were plated in 96-well plates and treated either with different concentrations of the peptides of interest, and/or with different concentrations of voriconazole (VCZ) (Sigma-Aldrich). As a positive control, cells were treated with 10 μg/mL VCZ. After 24 hours incubation, yeast growth was assessed by optical density OD600nm using a spectrophotometer (Multiscan EX). The efficiency of the combination between D-Ctl and VCZ was determined by the calculation of the Fractional inhibitory concentration index (FICI) according to the following formula: FICI = FICD-Ctl + […] = (MICD-Ctl in combination/MICD-Ctl alone) + ([…] in combination/[…] alone) . According to EUCAST[38], the effect of the combination is synergistic if FICI ≤ 0,5, additive if 0,5 < FICI ≤ 1, indifferent if 1 < FICI < 2 and antagonistic if FICI ≥ 2.

Candida albicans = experiment: Time-lapse video microscopy of Candida albicans with rhodamine-labelled peptides; assay type: cell-based; settings: for entry into C. albicans: 10 × MIC, 30 min incubation at 37 °C, fluorescence microscopy
Description: Diluted precultures (1/1000) of Candida albicans were incubated for 1 hour at 37 °C without agitation in glass bottom μ-Dish^35mm,high (Ibidi) previously treated with poly-L-lysine. […] To perform time-lapse video microscopy, the peptides were removed and replaced by Sabouraud medium. Yeasts were then plated at 37 °C, 5% CO2, on a Nikon Eclipse Ti inverted microscope equipped with an Andor Zyla sCMOS camera and a 60X objective. To prevent evaporation, a layer of mineral oil (Sigma) was added on top of the media prior imaging. Images (fluorescence and phase contrast) were captured every 10 min for 20 hours using Nikon NIS-Elements AR software, and processed with ImageJ.

Row | Molecule | stability in the supernatant of Candida albicans [1] | minimal inhibitory concentration (MIC) [2] | entry into C. albicans (Candida albicans) | other results
1 | CSCC[C@@H](NC(=O)[C@@H](CO)NC(=O)[C@H](N)CCCNC(=N)N)C(=O)N[C@H](CCCNC(=N)N)C(=O)N[C@H](CC(C)C)C(=O)N[C@H](CO)C(=O)N[C@H](Cc1ccccc1)C(=O)N[C@H](CCCNC(=N)N)C(=O)N[C@H](C)C(=O)N[C@H](CCCNC(=N)N)C(=O)NCC(=O)N[C@H](Cc1ccc(O)cc1)C(=O)NCC(=O)N[C@H](Cc1ccccc1)C(=O)N[C@H](CCCNC(=N)N)C(=O)O [D-Ctl, D-Cateslytin] (H-[dR][dS][dM][dR][dL][dS][dF][dR][dA][dR]G[dY]G[dF][dR]-OH) | still present | 5.5 µg/mL (≈ 2.96 µM) |  | 
2 | CSCC[C@H](NC(=O)[C@H](CO)NC(=O)[C@@H](N)CCCNC(=N)N)C(=O)N[C@@H](CCCNC(=N)N)C(=O)N[C@@H](CC(C)C)C(=O)N[C@@H](CO)C(=O)N[C@@H](Cc1ccccc1)C(=O)N[C@@H](CCCNC(=N)N)C(=O)N[C@@H](C)C(=O)N[C@@H](CCCNC(=N)N)C(=O)NCC(=O)N[C@@H](Cc1ccc(O)cc1)C(=O)NCC(=O)N[C@@H](Cc1ccccc1)C(=O)N[C@@H](CCCNC(=N)N)C(=O)O [L-Ctl, Cateslytin] (H-RSMRLSFRARGYGFR-OH) | the peak of L-Ctl disappeared | 7.9 µg/mL (≈ 4.25 µM) |  | 
3 | C[C@@H](c1ncncc1F)[C@](O)(Cn1cncn1)c1ccc(F)cc1F [VCZ, voriconazole] |  |  |  | MIC ([2]; Candida albicans, ATCC10231, lowest concentration inhibiting 100% of C. albicans growth, Sabouraud medium, 24 h, OD600nm, average of at least three experiments, read-out: minimal inhibitory concentration (MIC)): 0.07 µg/mL (≈ 0.2 µM); FIC (fractional inhibitory concentration) of the single agent in the combination ([3]; MIC in combination / MIC alone): 0.5; fold decrease of VCZ concentration by adding D-Ctl ([3]; with ½ MIC D-Ctl): 4; concentration of VCZ in the combination (¼ MIC VCZ) ([3]; with ½ MIC D-Ctl, kills 100% of C. albicans): 0.018 µg/mL
4 | Rho-D-Ctl: D-Ctl with a rhodamine moiety on the N-terminal end, used for video microscopy (rhodamine-[dR][dS][dM][dR][dL][dS][dF][dR][dA][dR]G[dY]G[dF][dR]; reading uncertain) |  |  | able to enter | effect on colonies totally invaded (Candida albicans; Rho-D-Ctl 10 × MIC (55 μg/mL), time-lapse video microscopy): systematic arrest of fungal growth and ongoing cellular divisions
5 | Rho-L-Ctl: L-Ctl with a rhodamine moiety on the N-terminal end, used for video microscopy (rhodamine-RSMRLSFRARGYGFR; reading uncertain) |  |  | able to enter | 
